Measurements published in patent US20180193372A1, “NOVEL BIOMARKER FOR DIAGNOSING RESISTANCE TO ANTICANCER AGENT FOR BILLARY TRACT CANCER AND USE THEREOF” (COWELL BIODIGM CO., LTD., priority 2015, published 2018).

Tests used:
SNU1196/P cells = test: MTT assay with gemcitabine, parent cell line; format: cell-based; conditions: Homo sapiens, 10 nM stated to be lower than the IC50, read-out: IC50 concentration of parent cell line
Experimental: (§1) To create an anticancer agent-resistant biliary tract cancer cell line, a SNU1196 cell line was treated with gemcitabine at various concentrations and then subjected to MTT assay to calculate an IC50 value, and the cells were treated with gemcitabine at a concentration of IC50 for 3 days. After 3 days, when the cells were recovered after being cultured in a drug-free growth medium [10% fetal bovine serum (FBS; Hyclone)-containing RPMI1640 (Invitrogen Gibco)], the cells were recovered by treating with gemcitabine at double the IC50 concentration for 3 days, and an anticancer agent-resistant cell line (named SNU1196/GR) was established by repeating such a cell culturing procedure for 1 year. Whether the resistance to the anticancer agent was acquired was confirmed by MTT assay.
Cells derived from biliary tract cancer cell line SNU1196 and anticancer agent-resistant biliary tract cancer cell line SNU1196/GR were attached to 96-well plates at 3×10^3 cells/well, and the following day, the cells were cultured for 72 hours by treating with gemcitabine at various concentrations. […] After 3 hours, the MTT solution was removed, and then absorbance was measured at 570 nm by adding dimethyl sulfoxide (DMSO) at 100 μl/well.

SNU1196/GR cells [1] = test: MTT assay of anticancer agent susceptibility after inhibiting TAGLN2 expression; format: cell-based, human; conditions: for change in susceptibility to anticancer agent when TAGLN2 expression was inhibited: TAGLN2 siRNA transfection
Experimental: As siRNA for TAGLN2, sc-106633 produced by Santa Cruz Biotechnology was used, and as control siRNA, sc-37007 (Santa Cruz Biotechnology) was used. An anticancer agent (gemcitabine)-resistant biliary tract cancer cell line SNU1196/GR was transfected with each of control siRNA and TAGLN2 siRNA using a lipofectamine RNAiMAX transfection reagent (Invitrogen), and after 24 hours, was cultured for 72 hours by treating with gemcitabine at various concentrations. The cell line reacted with an MTT solution (Sigma-Aldrich) for 3 hours, and then absorbance at 570 nm was measured by treating with DMSO to determine whether the anticancer agent resistance was overcome through inhibition of TAGLN2 expression in the anticancer agent-resistant biliary tract cancer cell line. The inhibition of the expression by TAGLN2 siRNA was confirmed by western blotting after 72 hours of the transfection.

SNU1196/GR cells [2] = test: MTT assay confirming resistance to anticancer agent (gemcitabine), resistant line; format: cell-based, human; conditions: SNU1196/GR vs SNU1196/P, 72 hours
Experimental: as §1, with “assay. Cells derived from biliary tract cancer cell line SNU1196 and anticancer agent-resistant biliary tract cancer cell line SNU1196/GR were attached to 96-well plates at 3×10^3 cells/well, and the following day, the cells were cultured for 72 hours by treating with gemcitabine at various concentrations. […] After 3 hours, the MTT solution was removed, and then absorbance was measured at 570 nm by adding dimethyl sulfoxide (DMSO) at 100 μl/well.” for “assay.”

Row | Structure (SMILES) | change in susceptibility to anticancer agent when TAGLN2 expression was inhibited (SNU1196/GR cells [1]) | further results
1 | Nc1ccn([C@@H]2O[C@H](CO)[C@@H](O)C2(F)F)c(=O)n1 [gemcitabine] | – | IC50 (SNU1196/P cells): > 10 nM; increase of anticancer agent susceptibility (SNU1196/GR cells [1]; co-treatment with TAGLN2 siRNA, gemcitabine 10 nM): 43%; IC50 value of SNU1196/GR cells for gemcitabine relative to parent cell line (SNU1196/GR cells [2]): 100 times
2 | N.N.O=C([O-])C1(C(=O)[O-])CCC1.[Pt+2] [carboplatin] | increased | –
3 | N.N.[Cl][Pt][Cl] [cisplatin] | increased | –
4 | C#Cc1cccc(Nc2ncnc3cc(OCCOC)c(OCCOC)cc23)c1 [erlotinib] | did not cause changes | –
5 | COc1cc([C@@H]2c3cc4c(cc3[C@@H](O[C@@H]3O[C@@H]5CO[C@@H](C)O[C@H]5[C@H](O)[C@H]3O)[C@H]3COC(=O)[C@H]23)OCO4)cc(OC)c1O [etoposide] | did not cause changes | –
6 | O=c1[nH]cc(F)c(=O)[nH]1 [5-FU, 5-fluorourasil] | increased | –
7 | O=C1[O][Pt]2([NH][C@@H]3CCCC[C@H]3[NH]2)[O]C1=O [oxaliplatin] | increased | –
8 | CCc1c2c(nc3ccc(OC(=O)N4CCC(N5CCCCC5)CC4)cc13)-c1cc3c(c(=O)n1C2)COC(=O)[C@]3(O)CC [irinotecan] | did not cause changes | –
